Measured values: patent US10238676B2, “Application of ginsenoside RG3 in preparing medicine for preventing and/or treating dementia, and medicine for treating dementia” (priority 2013, dated 2019)

Legend:
[1] = system: patients with mild or moderate Alzheimer's disease; test: Self-controlled clinical research, MMSE/CDR/ADL, mild or moderate Alzheimer's disease (Test Example 5); format: in vivo, human
Description: 99 patients with mild or moderate Alzheimer's disease, among which 47 are male, 52 are female, all aged from 55 to 85 (73.5±7.6), MMSE score is […] (16.3±2.6) points.
Patients with AD all use the ginsenoside Rg3 naristillae once a day, 10 mg/ml each time, and keep using it for 12 weeks.
Examination is conducted once every four weeks before and after medication, and the medication method is as follows:
(1) MMSE screening of AD: examining patients' cognitive functions (orientation, memory, computational power, language competence, ability in applying visual-spatial etc.; (2) Examining patents' dementia degree using the clinical dementia rating (CDR); (3) examining patents' activities of daily living using the activity of daily living scale (ADL).
SPSS statistical software is adopted for examination results. T-test is adopted before and after treatment, and it is also adopted for the ginsenoside Rg3 naristillae group and the placebo control group.

[2] = system: rat model with Alzheimer's disease; test: Channel-type water maze test, learning and memory of rat model with Alzheimer's disease; format: in vivo, Wistar rats; settings: AD model rats
Description: Water maze pre-training is performed after feeding for 1 week under the stable condition of laboratory, 60 rats with similar body weights and good flexibility are selected, and are divided into 6 groups randomly, a normal control group, a sham operated control group, a model control group, and high-dose, medium-dose and low-dose ginsenoside Rg3 groups (10, 5, 2.5 mg/kg/d), wherein each group has 10 animals.
The molding method applying intraperitoneal injection of 0.96% D-galactose prepared by normal saline is applied to rats to make model rat, 5 mL/kg, once daily for 6 continuous weeks. The rat of sham operated control group are injected with equivalent normal saline. The rat groups of the model control group and high-dose, medium-dose and low-dose ginsenoside Rg3 groups are intracranially injected with IBO starting from the 43th day, and each side is slowly injected with 1 μL of IBO, the sham operated group's rats are injected with equivalent normal saline in the same encephalic region (for 4 continuous weeks). The normal control group's rat are without any processing and eat and drink normally. The rats of high-dose, medium-dose and low-dose ginsenoside Rg3 groups are administered intragastrically with ginsenoside Rg3 oral emulsion daily while molding, and are administered for 4 w (weeks) after molding.
The changes of animal behavioristics in each group are tested by channel-type water maze test, and the learning and memory abilities of rats are evaluated by number of entering blind ends and the time needed to reach the terminal. All test results are expressed in mean±standard deviation, and the intergroup difference is subjected to variance analysis by adopting SPSS10.0 statistical package.

[3] = Content of ginsenoside Rg3 in rat cerebrospinal fluid (BBB test, LC/MS/MS); format: in vivo, SD rats; settings: rats, orally 10 mg/kg
Description: 1) Oral administration: an oral preparation of ginsenoside Rg3 is given to SD rats by lavage, the medicines of all high-dosage, medium-dosage and low-dosage groups are: 20, 10 and 5 mg/kg (the dosage above is pure dosage of Rg3)/bid, respectively, and each dosage group has 18 rats;
Rat cerebrospinal fluid is sucked after orally, topically and injection administering different preparations of ginsenoside Rg3 for 4 hours. […] Each rat is anesthetized with 10% chloral hydrate by intraperitoneal injection, the head of the rat is fixed by brain straight body positioning ear rods and front tooth rods, the occipital region is sheared and sterilized, and a longitudinal incision (about 2 cm) is cut along the posterior midline, and the muscles at the dorsal part of napex are bluntly separated with a pair of scissors. […]
The medicine concentrations in the rat cerebrospinal fluid are determined by LC/MS/MS methods. […]

[4] = system: patients with mild or moderate Alzheimer's disease; test: Placebo-controlled clinical research, MMSE/CDR/ADL, mild or moderate Alzheimer's disease (Test Example 4); format: in vivo, human
From the text: 89 patients with mild or moderate Alzheimer's disease are divided into two groups randomly, one of which take ginsenoside Rg3, and the other placebos. There are 46 patients in the group taking Rg3, with 21 male and 25 female, aged from 58 to 87 (72.6±6.8), scoring from 10 to 24 (17.8±2.3) points in the mini-mental state examination (MMSE); there are 43 patients taking placebos, with 19 male and 24 female aged from 57 to 88 (71.8±8.2), scoring from 10 to 24 (18.2±2.7) points in MMSE. There are no obvious differences between the ginsenoside Rg3 group and the placebo group with respect to gender, age and MMSE scores. The patents in the group taking ginsenoside Rg3 use the ginsenoside Rg3 naristillae once a day for 12 continuous weeks, with 10 mg/ml for each time.
For the patients taking placebos, except that what is used for intranasal administration are placebos, the rest is conducted according to the same administration method as that adopted by those taking ginsenoside Rg3.
The ginsenoside Rg3 naristillae has a concentration of 10 mg/ml, and colors, characters, tastes and dosages of the placebos are the same as those of the ginsenoside Rg3 naristillae. The ginsenoside Rg3 naristillae and the placebos are applied once a day for 12 continuous weeks. Examination is conducted once every four weeks before and after medication, and the examination method is as follows:
(1) MMSE Screening of AD: examining patients' cognitive functions (orientation, memory, computational power, language competence, ability in applying visual-spatial segment etc.; (2) Examining patents' dementia degrees using the clinical dementia rating (CDR); (3) Examining patents' activities of daily living using the activity of daily living scale (ADL).
SPSS statistical software is adopted for examination results. T-test is adopted before and after treatment, and it is also adopted for the ginsenoside Rg3 naristillae group and the placebo control group. For scoring results of MMSE, CDR and ADL of patients with AD before treatment, see table 5

[5] = 99 AD patients, Rg3 naristillae 10 mg/ml once a day
[6] = Test Example 5, versus before treatment
[7] = Rg3 oral emulsion (embodiment 17) intragastric, 10 mg/kg/d
[8] = Rg3 oral emulsion intragastric, 2.5 mg/kg/d
[9] = Rg3 oral emulsion intragastric, 5 mg/kg/d
[10] = 46 AD patients, Rg3 naristillae 10 mg/ml intranasal once a day

With `CC(C)=CCC[C@](C)(O)[C@H]1CC[C@]2(C)[C@@H]1[C@H](O)C[C@@H]1[C@@]3(C)CC[C@H](O[C@@H]4O[C@H](CO)[C@@H](O)[C@H](O)[C@H]4O[C@@H]4O[C@H](CO)[C@@H](O)[C@H](O)[C@H]4O)C(C)(C)[C@@H]3CC[C@]12C` [Ginsenoside Rg3, 20(R)-ginsenoside Rg3] the “ADL score before treatment” value ([1]; 99 AD patients, baseline) was 49.6 ± 8.2 points, the “CDR score before treatment” value ([1]; 99 AD patients, baseline) was 2.1 ± 0.3 points and the “MMSE score before treatment” value ([1]; 99 AD patients, baseline) was 16.3 ± 2.6 points. The “ADL score, treatment for 4 weeks” value [1, 5] was 48.2 ± 7.9 points, the “ADL score, treatment for 12 weeks” value [1, 5] was 42.5 ± 7.3 points and the “CDR score, treatment for 4 weeks” value [1, 5] was 1.9 ± 0.2 points. The “CDR score, treatment for 12 weeks” value [1, 5] was 1.5 ± 0.2 points, the “MMSE score, treatment for 4 weeks” value [1, 5] was 17.1 ± 1.9 points and the “MMSE score, treatment for 12 weeks” value [1, 5] was 19.8 ± 1.7 points. For the same compound, the “decrease of ADL score after treatment” value [1, 6] was 7.1 points, the “decrease of CDR score after treatment for 12 weeks” value [1, 6] was 0.6 points and the “increase of MMSE score after treatment for 12 weeks” value [1, 6] was 3.5 points. It also gave an Error times [2, 7] of 1.01 ± 0.41 time, a Swimming out time [2, 7] of 12.26 ± 3.26 s and an Error times [2, 8] of 1.82 ± 0.43 time. The Swimming out time [2, 8] was 32.26 ± 3.21 s, the Error times [2, 9] was 1.10 ± 0.44 time and the Swimming out time [2, 9] was 19.26 ± 3.23 s. For the same compound, the “Ginsenoside Rg3 in cerebrospinal fluid sample (FIG. 2C chromatogram)” value [3] was 10.8 ng/g, the “ADL score before treatment” value ([4]; 46 AD patients, baseline) was 47.2 ± 7.9 points and the “CDR score before treatment” value ([4]; 46 AD patients, baseline) was 1.9 ± 0.3 points. For the same compound, the “MMSE score before treatment” value ([4]; 46 AD patients, baseline) was 17.8 ± 2.3 points, the “ADL score after treatment for 12 weeks” value [4, 10] was 40.5 ± 7.6 points and the “CDR score after treatment for 12 weeks” value [4, 10] was 1.2 ± 0.2 points. The “MMSE score after treatment for 12 weeks” value ([4]; 46 AD patients, Rg3 naristillae (embodiment 29) 10 mg/ml intranasal once a day) was 24.1 ± 2.0 points and the “decrease of ADL score after treatment compared with before treatment” value ([4]; Test Example 4, Rg3 naristillae, 12 weeks) was 7.1 points.
